Results taken from article PMC4999848 (Toxins, 2016).
Several values for one entry are separate records, joined by “and”; a condition that tells them apart may be missing. Equal entries are not always repeated.

Experiments:
[1] = system: secreted digestive enzymes and fecal bacteria; assay: Deacetylation of 3/15ADON by secreted digestive enzymes and fecal bacteria (taken together); type: in vitro ADME; details: digestive enzymes plus fecal bacteria
Protocol: (§1) The whole procedure involving fecal bacteria (including the use of fecal bacteria for the deacetylation assay) was performed in an anaerobic cabinet (Coy Laboratory Products, Grass Lake, MI, USA). Human fecal bacteria were isolated from three volunteers (men) working in the department, 40–50 years of age. Stools were collected fresh in a sterile container and were immediately introduced into the anaerobic cabinet. Feces samples were taken by pushing a cut-off disposal 1 mL pipette tip into the inner part of the stools. Samples were then mechanically suspended in 9 mL of degassed PBS^++. Homogenates were allowed to decant for ten minutes to eliminate insoluble matter, and supernatants (1 mL aliquots) were transferred to sterile Eppendorf tubes and used for deacetylation assay.
Stock solutions of DON, 3ADON and 15ADON at 2 mg/mL were prepared in absolute ethanol and stored at −20 °C. For deacetylation assay, 3- or 15ADON were incubated with cells, explants, bacteria or digestive enzymes after being diluted in PBS^++ at a final concentration of 100 μM. PBS^++ solution containing only ethanol (at 1.5% final concentration) or DON (at 100 μM) were used in parallel as negative and positive control, respectively. […] In all cases, aliquots of the reaction solution were collected immediately (i.e., “time zero” sample) or after the indicated time period at 37 °C and analyzed by HPLC. […]

[2] = set-up: method as in PMID 26343882; details: pigs, oral and intravenous (i.v) exposures; cited from earlier work
small intestinal explant = assay: Deacetylation of 3/15ADON by human small intestinal explants; type: in vitro ADME; details: for Contribution to total deacetylation activity: Small intestine: percentage of sum of specific activities (Figure 8); for Disappearance of 3/15ADON, specific activity: small intestinal explant, 37 °C, substrate 100 μM; for % of deacetylation: small intestinal explants, 6 h incubation, 100 μM
Source text: Human tissue samples were obtained from patients undergoing surgery at the Hospital Nord of Marseille, unit of general and gastrointestinal surgery according to a collaborative “clinical transfer” project. The procedures were approved by the French ethic committee (CODECOH n° DC-2011-1319). Patients were from both genders (six men, three women), 31–74 years of age, all of European origin. All patients agree to use their tissues for research purposes. Samples were taken from macroscopically unaffected area as identified by the surgeon for intestinal samples or the pathologist for liver resections. Diagnoses leading to surgery were carcinoma for intestine or liver. After resection, the specimens were placed in ice-cold non-sterile Krebs solution implemented and transferred to the school of medicine on the same campus within 5 min, composition of the Krebs solution being previously described. The tissues were rinsed several times and maintained in oxygenated Krebs during 1 h for recovery before final dissection. Intestinal and hepatic resections were extensively washed and maintained in ice-cold culture media containing 1% streptomycin/penicillin solution and 50 μg/mL gentamycin. Tissues were cleaned from vascular vessels and conjunctive tissue using forceps under binocular microscope. In case of intestinal resection, muscularis and plexus were removed and only epithelial layer was kept. Intestinal and hepatic explants (wet weight of 20–30 mg) were then isolated from the cleaned resections using surgical punch (diameter of […]). […] Finally, the explants were washed 3 times with PBS^++ and transferred into 6-well plates before being used for deacetylation assay.
(§2) Stock solutions of DON, 3ADON and 15ADON at 2 mg/mL were prepared in absolute ethanol and stored at −20 °C. For deacetylation assay, 3- or 15ADON were incubated with cells, explants, bacteria or digestive enzymes after being diluted in PBS^++ at a final concentration of 100 μM. PBS^++ solution containing only ethanol (at 1.5% final concentration) or DON (at 100 μM) were used in parallel as negative and positive control, respectively. For cells and explants, deacetylation assay take place in 6-well plates, wells being filled with 2 mL of PBS^++ containing either ethanol, DON, 3- or 15ADON. For fecal bacteria and digestive enzyme assay, deacetylation assay was conducted in 2 mL Eppendorf tubes filled with 1.5 mL of PBS^++ containing either ethanol, DON, 3- or 15ADON. In vitro intestinal digestion by luminal enzymes was performed using porcine enzymes from Sigma-Aldrich and physiological conditions. Briefly, 3- or 15ADON were incubated with pepsin (at 1.6 mg/mL corresponding to 900 U/mL), trypsin (at 0.35 mg/mL corresponding to 6000 U/mL), pancreatic lipase (at 0.75 mg/mL corresponding to 18 U/mL) or pancreatin (at 1.23 mg/mL, lipase activity >10 U/mL, protease activity >100 U/mL, amylase activity >100 U/mL). Except for pepsin for which the digestion was conducted in HCl solution at 10 mM (pH 2.3), in vitro digestion was performed in PBS^++ (pH 7.4). Finally, deacetylation assay was also performed with commercial pooled S9 fractions from human liver, small intestine and kidneys as well as with pure recombinant human CES1 and CES2. S9 fractions and CES1/2 were used at 0.1 mg/mL and 5 μg/mL (corresponding to CES activity >20 U/mL), respectively. In all cases, aliquots of the reaction solution were collected immediately (i.e., “time zero” sample) or after the indicated time period at 37 °C and analyzed by HPLC. […] In all cases, the experiments were conducted in triplicate (n = 3).

human fecal bacteria = assay: Deacetylation of 3/15ADON by human fecal bacteria; type: in vitro ADME; details: for Disappearance of 3/15ADON, specific activity: fecal bacteria, anaerobic, 37 °C, substrate 100 μM; for % of deacetylation: human fecal bacteria; for Contribution to total deacetylation activity: Bacteria: percentage of sum of specific activities (Figure 8)
Protocol: as §1, §2
(§3) Deacetylation was monitoring both in term of disappearance of 3- or 15ADON and formation of DON. Measurement of DON, 3ADON and 15ADON concentrations was performed by reversed-phase HPLC using Waters Alliance System equipped with a Waters 2690 XE separation module and a Waters 996 photodiode array detector (Waters, Saint Quentin Falavier, France). The separation was achieved by mean of a LiChroCart column (125 mm × 4 mm) packed with 5 μm RP-18 Purospher gel (Merck, Darmstadt, Germany) and equipped with a LiChroCart precolumn (4 mm × 4 mm) packed with the same material (Merck). The precolumn and column were placed in room temperature. The elution procedure was carried out at 0.7 mL·min^−1 by a methanol–water solvent, using the following conditions: 40% methanol during 2 min followed by an increase in methanol to 50% at 2.1 min.

[3] = Deacetylation of 3/15ADON by small intestine S9 fraction; type: in vitro ADME, human
Protocol: as §2
as §3, with “min. The detection wavelength was set at 237 nm allowing the best signal/baseline ratio for simultaneous detection of the three DON forms in the incubation mediums. Under these conditions, DON and 3/15ADON were clearly separated, the retention time being around 2.7 min and 5.7 min, for DON and 3/15ADON, respectively (Figure 9). Quantification was based on calibration with the corresponding standard using Millinium Software (Waters, Saint Quentin Falavier, France).” for “min.”

[4] = S9 Intestine + Benzil 100 μM (Table 1)
[5] = S9 small intestine 0.1 mg/mL, 37 °C, substrate 100 μM (Table 3)

Row | SMILES | Contribution to total deacetylation: intestinal luminal events [1] [%] | Transformation into DON in vivo [2] | Contribution to total deacetylation activity: Small intestine (small intestinal explant) [%] | Disappearance of 3/15ADON, specific activity (small intestinal explant) | % of deacetylation (small intestinal explant) | Disappearance of 3/15ADON, specific activity (human fecal bacteria) [pmol/min/mg] | % of deacetylation (human fecal bacteria; 6 h incubation, 100 μM) | % of deacetylation (human fecal bacteria; 48 h incubation) | Contribution to total deacetylation activity: Bacteria (human fecal bacteria) [%] | Disappearance of 3/15ADON, specific activity [3, 4] [pmol/min/mg] | Disappearance of 3/15ADON, specific activity [3, 5] | Disappearance of 3/15ADON, specific activity ([3]; S9 Intestine, without benzil (Table 1)) [pmol/min/mg]
1 | CC(=O)OC[C@]12[C@H](O)C(=O)C(C)=C[C@H]1O[C@@H]1[C@H](O)C[C@@]2(C)[C@]12CO2 [15ADON, 15-acetyldeoxynivalenol] | 34 | complete transformation into DON | 13 | 85 pmol/min/mg and 85 ± 65 pmol/min/mg | 17.2% ± 13.4% | 5.8 ± 1.3 | no activity | 14.9% ± 3.2% | 0.9 | 171 ± 79 | 166 pmol/min/mg and 166 ± 20 pmol/min/mg | –
2 | CC(=O)O[C@@H]1C[C@]2(C)[C@@]3(CO)[C@H](O)C(=O)C(C)=C[C@H]3O[C@H]1[C@@]21CO1 [3ADON, 3-acetyldeoxynivalenol] | 16 | complete transformation into DON | 26 | 338 pmol/min/mg and 338 ± 69 pmol/min/mg | 67.3% ± 13.8% | 34 ± 0.9 | 22.6% ± 15.9% | 82.1% ± 21.9% | 2.6 | 875 ± 83 | 1250 pmol/min/mg and 1250 ± 79 pmol/min/mg | 1166 ± 110
